In US11236122B2, “Triterpene amine derivatives” (DFH THERAPEUTICS, priority 2018, dated 2022):
Structures can show the parent of a compound that is named as a salt.

Experiments:
[1] = test system: WT pNL4-3; test: CA-SP1 accumulation assay, WT NL4-3; type: cell-based, HIV-1; settings: HeLa or 293T cells; for % CA-SP1 Accumulation 10 nM NL4-3: 10 nM compound; for % CA-SP1 Accumulation 100 nM NL4-3: 100 nM compound
Description: (§1) Cell culture, plasmids and transfections. The MT-4 T-cell line was maintained in RPMI-1640 medium supplemented with 10% (vol/vol) fetal bovine serum (FBS), 2 mM glutamine, 100 U/mL penicillin and 100 μg/mL streptomycin at 37° C. in a humidified 5% CO2 atmosphere. HeLa and 293T cells were maintained in Dulbecco's modified Eagle's medium (DMEM) supplemented with 5% (vol/vol) FBS, 2 mM glutamine, 100 U/mL penicillin and 100 μg/mL streptomycin. Molecular clones used in this study were WT pNL4-3 and the derivative encoding a Val-to-Ala mutation at SP1 residue 7, referred to as SP1-V7A. The MT-4 T-cell line was transfected the DEAE/dextran procedure; HeLa and 293T cells were transfected with linear polyethylenimine (L-PEI) or Lipofectamine 2000 (Invitrogen) as recommended by the supplier.
(§2) CA-SP1 accumulation assay. For CA-SP1 accumulation assays, HeLa or 293T cells were transfected with WT pNL4-3 or the SP1-V7A derivative. At 24 h post-transfection, cells were starved in Met/Cys-free medium for 30 min and metabolically labeled with [^35S]Met/Cys-Pro-mix (Amersham) for 2-3 h. Maturation inhibitors were maintained in the cultures throughout the transfection and labeling period. Viruses were collected by ultracentrifugation at 99,000×g for 45-60 min. Virus pellets were resuspended in Triton X-100 lysis buffer [300 mM NaCl, 50 mM Tris-HCl (pH 7.5), 0.5% Triton X-100, 10 mM iodoacetamide, and protease inhibitor cocktail tablets (Roche)]. CA and CA-SP1 proteins were separated on 13.5-15% polyacrylamide gels by SDS-polyacrylamide gel electrophoresis, exposed to a phosphorimager plate (Fuji) and quantified by Quantity One software (Bio-Rad).

[2] = test system: pNL4-3 SP1-V7A; test: CA-SP1 accumulation assay, SP1-V7A derivative; type: cell-based, HIV-1; settings: HeLa or 293T cells; for % CA-SP1 Accumulation 10 nM SP1 V7A: 10 nM compound; for % CA-SP1 Accumulation 100 nM SP1 V7A: 100 nM compound
Description: as §1, §2

Row | SMILES | % CA-SP1 Accumulation 10 nM NL4-3 [1] | % CA-SP1 Accumulation 10 nM SP1 V7A [2] | % CA-SP1 Accumulation 100 nM NL4-3 [1] | % CA-SP1 Accumulation 100 nM SP1 V7A [2]
1 | C=C(C)[C@@H]1CC[C@]2(CCNCCN3CCN(c4ccccc4)CC3)CC[C@]3(C)[C@H](CC[C@@H]4[C@@]5(C)CC[C@H](OC(=O)CC(C)(C)C(=O)O)C(C)(C)[C@@H]5CC[C@]43C)[C@@H]12 [Compound 51p, (3β)-17-[2-[[2-(4-Phenylpiperazin-1-yl)ethyl]amino]ethyl]-28-norlup-20(29)-en-3-ol, 3-(1-Hydrogen 2,2-Dimethylbutanedioate)] | 60.0% | 22.5% | – | –
2 | C=C(C)[C@@H]1CC[C@]2(CCNCCN3CCN(Cc4cccc5ccccc45)CC3)CC[C@]3(C)[C@H](CC[C@@H]4[C@@]5(C)CC[C@H](OC(=O)CC(C)(C)C(=O)O)C(C)(C)[C@@H]5CC[C@]43C)[C@@H]12 [Compound 51q, (3β)-17-[2-[[2-[4-(1-Naphthalenylmethyl)piperazin-1-yl]ethyl]amino]ethyl]-28-norlup-20(29)-en-3-ol, 3-(1-Hydrogen 2,2-Dimethylbutanedioate)] | 26.8% | 11.6% | – | –
3 | C=C(C)[C@@H]1CC[C@]2(CCNCCN3CCN(CC4CCCCC4)CC3)CC[C@]3(C)[C@H](CC[C@@H]4[C@@]5(C)CC[C@H](OC(=O)CC(C)(C)C(=O)O)C(C)(C)[C@@H]5CC[C@]43C)[C@@H]12 [Compound 51s, (3β)-17-[2-[[2-[4-(Cyclohexylmethyl)piperazin-1-yl]ethyl]amino]ethyl]-28-norlup-20(29)-en-3-ol, 3-(1-Hydrogen 2,2-Dimethylbutanedioate)] | 48.7% | 14.5% | – | –
4 | C=C(C)[C@@H]1CC[C@]2(CCNCCN3CCN(Cc4ccc5ccccc5n4)CC3)CC[C@]3(C)[C@H](CC[C@@H]4[C@@]5(C)CC[C@H](OC(=O)CC(C)(C)C(=O)O)C(C)(C)[C@@H]5CC[C@]43C)[C@@H]12 [Compound 51t, (3β)-17-[2-[[2-[4-(2-Quinolinylmethyl)piperazin-1-yl]ethyl]amino]ethyl]-28-norlup-20(29)-en-3-ol, 3-(1-Hydrogen 2,2-Dimethylbutanedioate)] | 56.1% | 18.6% | – | –
5 | C=C(C)[C@@H]1CC[C@]2(CCNCCN3CCN(Cc4ccccn4)CC3)CC[C@]3(C)[C@H](CC[C@@H]4[C@@]5(C)CC[C@H](OC(=O)CC(C)(C)C(=O)O)C(C)(C)[C@@H]5CC[C@]43C)[C@@H]12 [Compound 51u, (3β)-17-[2-[[2-[4-(2-Pyridinylmethyl)piperazin-1-yl]ethyl]amino]ethyl]-28-norlup-20(29)-en-3-ol, 3-(1-Hydrogen 2,2-Dimethylbutanedioate)] | 53.8% | 30.2 (2) % | – | –
6 | C=C(C)[C@@H]1CC[C@]2(CNCCCN3CCCC3)CC[C@]3(C)[C@H](CC[C@@H]4[C@@]5(C)CC[C@H](OC(=O)CC(C)(C)C(=O)O)C(C)(C)[C@@H]5CC[C@]43C)[C@@H]12 [Compound 51v, (3β)-28-[[3-(1-Pyrrolidinyl)propyl]amino]lup-20(29)-en-3-ol, 3-(1-Hydrogen 2,2-Dimethylbutanedioate) Sulfate] | 21.9% | 10.3% | 57.2% | 26.9%
7 | C=C(C)[C@@H]1CC[C@]2(CNCCN3CCN(Cc4ccccc4)CC3)CC[C@]3(C)[C@H](CC[C@@H]4[C@@]5(C)CC[C@H](OC(=O)CC(C)(C)C(=O)O)C(C)(C)[C@@H]5CC[C@]43C)[C@@H]12 [Compound 51w, (3β)-28-[[2-[4-(Phenylmethyl)piperazin-1-yl]ethyl]amino]lup-20(29)-en-3-ol, 3-(1-Hydrogen 2,2-Dimethylbutanedioate) Sesquisulfate] | 16.3% | 9.6% | 50.1% | 21.6%
